Patent publication US8247211B2, “Glycopeptide antibiotics” (American Cyanamid Company, priority 2001, dated 2012)

Key:
Experiment in all cases: In vitro antibacterial evaluation: minimum inhibitory concentration (MIC), broth dilution method
Format in all cases: cell-based
Enterococcus sp. = tested on: Enterococcus sp.
Outline: (§1)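 NCCLS M7-A2 broth dilution; Muller-Hinton II […]; 5×10^5 CFU/mL; 64-0.06 μg/mL. MIC = lowest concentration with no growth.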

Escherichia coli [1] = tested on: Escherichia coli
Outline: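 Following NCCLS approved standard M7-A2, compounds are serially diluted from 64 to 0.06 μg/mL in Muller-Hinton II […] and inoculated at 5×10^5 CFU/mL; the MIC is the minimum concentration at which growth is inhibited.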

Staphylococcus sp. = conditions: 18 hours at 35° C.
Outline: as §1

Streptococcus sp. = conditions: 18 hours at 35° C.
Outline: as §1

Escherichia coli [2] = tested on: Escherichia coli; remark: listed apart in the source
[3] = Enterococcus faecalis (ATCC 29212)
[4] = Enterococcus faecalis (GC 2242), 18 hours at 35° C.
[5] = Enterococcus faecalis (GC 4552), 18 hours at 35° C.
[6] = Enterococcus faecalis (GC 4553)
[7] = Enterococcus faecalis (GC 4554)
[8] = Staphylococcus aureus (ATCC 29213)
[9] = Staphylococcus aureus (GC 1131)
[10] = Staphylococcus aureus (GC 4541)
[11] = Staphylococcus aureus (GC 4542)
[12] = Staphylococcus aureus (GC 4544)
[13] = Staphylococcus aureus (GC 4545)
[14] = Streptococcus agalactiae (GC 4564)
[15] = Streptococcus pyogenes (ID-3187)

In the case of CC(c1ccc(F)cc1)C1NC(=O)CNC(=O)C(CO)NC(=O)C(C(O)C2CNC(=N)N2C2OC(CO)C(O)C(O)C2O)NC(=O)C(C(O)C2CNC(=N)N2)NC(=O)C(Cc2ccc(OC3OC(CO)C(OC4OC(CO)C(O)C(O)C4O)C(O)C3O)cc2)NC1=O (stereo not drawn) [Example 261a, Cyclo[glycyl-4-fluoro-β-methylphenylalanyl-O-(4-O-hexopyranosylhexopyranosyl)tyrosyl-3-(2-iminoimidazolidin-4-yl)seryl-3-(3-hexopyranosyl-2-iminoimidazolidin-4-yl)serylseryl]], the “MIC Enterococcus avium (GC 4558)” value (Enterococcus sp.; Enterococcus avium (GC 4558)) is reported as greater than 64 µg/mL, the “MIC Enterococcus faecalis (ATCC 29212)” value (Enterococcus sp.; [3]) is reported as greater than 64 µg/mL and the “MIC Enterococcus faecalis (GC 2242)” value (Enterococcus sp.; [4]) is reported as greater than 64 µg/mL. For the same compound, the “MIC Enterococcus faecalis (GC 4552)” value (Enterococcus sp.; [5]) was greater than 64 µg/mL, the “MIC Enterococcus faecalis (GC 4553)” value (Enterococcus sp.; [6]) was greater than 64 µg/mL and the “MIC Enterococcus faecalis (GC 4554)” value (Enterococcus sp.; [7]) was greater than 64 µg/mL. The “MIC Enterococcus faecium (GC 2243)” value (Enterococcus sp.; Enterococcus faecium (GC 2243)) was greater than 64 µg/mL, the “MIC Enterococcus faecium (GC 4556)” value (Enterococcus sp.; Enterococcus faecium (GC 4556)) was greater than 64 µg/mL and the “MIC Enterococcus faecium (GC 4557)” value (Enterococcus sp.; Enterococcus faecium (GC 4557)) was greater than 64 µg/mL. The “MIC Escherichia coli (GC 4559)” value (Escherichia coli [1]) was greater than 64 µg/mL, the “MIC Escherichia coli (GC 4560)” value (Escherichia coli [1]) was greater than 64 µg/mL and the “MIC Coagulase Negative Staphylococcus (GC 4547)” value (Staphylococcus sp.) was greater than 64 µg/mL. The “MIC Coagulase Negative Staphylococcus (GC 4548)” value (Staphylococcus sp.) was greater than 64 µg/mL, the “MIC Coagulase Negative Staphylococcus (GC 4549)” value (Staphylococcus sp.) was greater than 64 µg/mL and the “MIC Coagulase Negative Staphylococcus (GC 4551)” value (Staphylococcus sp.) was greater than 64 µg/mL. For the same compound, the “MIC Staphylococcus aureus (ATCC 29213)” value (Staphylococcus sp.; [8]) was greater than 64 µg/mL, the “MIC Staphylococcus aureus (GC 1131)” value (Staphylococcus sp.; [9]) was greater than 64 µg/mL and the “MIC Staphylococcus aureus (GC 4541)” value (Staphylococcus sp.; [10]) was greater than 64 µg/mL. For the same compound, the “MIC Staphylococcus aureus (GC 4542)” value (Staphylococcus sp.; [11]) was greater than 64 µg/mL, the “MIC Staphylococcus aureus (GC 4544)” value (Staphylococcus sp.; [12]) was greater than 64 µg/mL and the “MIC Staphylococcus aureus (GC 4545)” value (Staphylococcus sp.; [13]) was greater than 64 µg/mL. The “MIC Staphylococcus aureus-SMITH (GC 4543)” value (Staphylococcus sp.) was greater than 64 µg/mL, the “MIC Staphylococcus haemolyticus (GC 4546)” value (Staphylococcus sp.) was greater than 64 µg/mL and the “MIC Streptococcus agalactiae (GC 4564)” value (Streptococcus sp.; [14]) was greater than 64 µg/mL. The “MIC Streptococcus pyogenes (ID-3187)” value (Streptococcus sp.; [15]) was greater than 64 µg/mL and the “MIC Escherichia coli (ATCC 25922)” value (Escherichia coli [2]) was greater than 64 µg/mL.
For “β-O-[(Cyclohexylamino)carbonyl]-cyclo[glycyl-β-methylphenylalanyl-O-(4-O-hexonyranosylhexopyranosyl)tyrosyl-3-(2-iminoimidazolidin-4-yl)seryl-3-(3-hexopyranosyl-2-iminoimidazolidin-4-yl)serylseryl] [Example 256a]”, the “MIC Enterococcus avium (GC 4558)” value (Enterococcus sp.; Enterococcus avium (GC 4558)) was greater than 64 µg/mL, the “MIC Enterococcus faecalis (ATCC 29212)” value (Enterococcus sp.; [3]) was greater than 64 µg/mL and the “MIC Enterococcus faecalis (GC 2242)” value (Enterococcus sp.; [4]) was greater than 64 µg/mL. The “MIC Enterococcus faecalis (GC 4552)” value (Enterococcus sp.; [5]) was greater than 64 µg/mL, the “MIC Enterococcus faecalis (GC 4553)” value (Enterococcus sp.; [6]) was greater than 64 µg/mL and the “MIC Enterococcus faecalis (GC 4554)” value (Enterococcus sp.; [7]) was greater than 64 µg/mL. The “MIC Enterococcus faecium (GC 2243)” value (Enterococcus sp.; Enterococcus faecium (GC 2243)) was greater than 64 µg/mL, the “MIC Enterococcus faecium (GC 4556)” value (Enterococcus sp.; Enterococcus faecium (GC 4556)) was greater than 64 µg/mL and the “MIC Enterococcus faecium (GC 4557)” value (Enterococcus sp.; Enterococcus faecium (GC 4557)) was 32 µg/mL. The “MIC Enterococcus faecalis (ATCC 29212)” value (Enterococcus sp.; broth dilution, 18 hours at 35° C., strain ATCC 29212) was greater than 64 µg/mL, the “MIC Enterococcus faecalis (GC 2242)” value (Enterococcus sp.; broth dilution, 18 hours at 35° C., strain GC 2242) was greater than 64 µg/mL and the “MIC Enterococcus faecium (GC 2243)” value (Enterococcus sp.; broth dilution, 18 hours at 35° C., strain GC 2243) was greater than 64 µg/mL. For the same compound, the “MIC Enterococcus faecalis (GC 4552)” value (Enterococcus sp.; broth dilution, 18 hours at 35° C., strain GC 4552) was greater than 64 µg/mL, the “MIC Enterococcus faecalis (GC 4553)” value (Enterococcus sp.; broth dilution, 18 hours at 35° C., strain GC 4553) was greater than 64 µg/mL and the “MIC Enterococcus faecalis (GC 4554)” value (Enterococcus sp.; broth dilution, 18 hours at 35° C., strain GC 4554) was greater than 64 µg/mL. For the same compound, the “MIC Enterococcus faecium (GC 4556)” value (Enterococcus sp.; broth dilution, 18 hours at 35° C., strain GC 4556) was greater than 64 µg/mL, the “MIC Enterococcus faecium (GC 4557)” value (Enterococcus sp.; broth dilution, 18 hours at 35° C., strain GC 4557) was 32 µg/mL and the “MIC Enterococcus avium (GC 4558)” value (Enterococcus sp.; broth dilution, 18 hours at 35° C., strain GC 4558) was greater than 64 µg/mL. The “MIC Escherichia coli (GC 4559)” value (Escherichia coli [1]) was greater than 64 µg/mL, the “MIC Escherichia coli (GC 4560)” value (Escherichia coli [1]) was 8 µg/mL and the “MIC Coagulase Negative Staphylococcus (GC 4547)” value (Staphylococcus sp.) was greater than 64 µg/mL. For the same compound, the “MIC Coagulase Negative Staphylococcus (GC 4548)” value (Staphylococcus sp.) was greater than 64 µg/mL, the “MIC Coagulase Negative Staphylococcus (GC 4549)” value (Staphylococcus sp.) was greater than 64 µg/mL and the “MIC Coagulase Negative Staphylococcus (GC 4551)” value (Staphylococcus sp.) was greater than 64 µg/mL. For the same compound, the “MIC Coagulase Negative Staphylococcus (ID-3941)” value (Staphylococcus sp.; Coagulase Negative Staphylococcus (ID-3941)) was 64 µg/mL, the “MIC Staphylococcus aureus (ATCC 29213)” value (Staphylococcus sp.; [8]) was greater than 64 µg/mL and the “MIC Staphylococcus aureus (GC 1131)” value (Staphylococcus sp.; [9]) was greater than 64 µg/mL. For the same compound, the “MIC Staphylococcus aureus (GC 4541)” value (Staphylococcus sp.; [10]) was greater than 64 µg/mL, the “MIC Staphylococcus aureus (GC 4542)” value (Staphylococcus sp.; [11]) was greater than 64 µg/mL and the “MIC Staphylococcus aureus (GC 4544)” value (Staphylococcus sp.; [12]) was greater than 64 µg/mL. For the same compound, the “MIC Staphylococcus aureus (GC 4545)” value (Staphylococcus sp.; [13]) was greater than 64 µg/mL, the “MIC Staphylococcus aureus-SMITH (GC 4543)” value (Staphylococcus sp.) was greater than 64 µg/mL and the “MIC Staphylococcus haemolyticus (GC 4546)” value (Staphylococcus sp.) was greater than 64 µg/mL. The “MIC Staphylococcus aureus (ATCC 29213)” value (Staphylococcus sp.; broth dilution, strain ATCC 29213) was greater than 64 µg/mL, the “MIC Staphylococcus aureus (GC 1131)” value (Staphylococcus sp.; broth dilution, strain GC 1131) was greater than 64 µg/mL and the “MIC Staphylococcus aureus (GC 4541)” value (Staphylococcus sp.; broth dilution, strain GC 4541) was greater than 64 µg/mL. For the same compound, the “MIC Staphylococcus aureus (GC 4542)” value (Staphylococcus sp.; broth dilution, strain GC 4542) was greater than 64 µg/mL, the “MIC Staphylococcus aureus (GC 4544)” value (Staphylococcus sp.; broth dilution, strain GC 4544) was greater than 64 µg/mL and the “MIC Staphylococcus aureus (GC 4545)” value (Staphylococcus sp.; broth dilution, strain GC 4545) was greater than 64 µg/mL. For the same compound, the “MIC Streptococcus agalactiae (GC 4564)” value (Streptococcus sp.; [14]) was greater than 64 µg/mL, the “MIC Streptococcus pneumoniae (GC 4565)” value (Streptococcus sp.; Streptococcus pneumoniae (GC 4565)) was 64 µg/mL and the “MIC Streptococcus pyogenes (ID-3187)” value (Streptococcus sp.; [15]) was 64 µg/mL. The “MIC Streptococcus agalactiae (GC 4564)” value (Streptococcus sp.; broth dilution, strain GC 4564) was greater than 64 µg/mL, the “MIC Streptococcus pneumoniae (GC 4565)” value (Streptococcus sp.; broth dilution, strain GC 4565) was 64 µg/mL and the “MIC Streptococcus pyogenes (ID-3187)” value (Streptococcus sp.; broth dilution, strain ID-3187) was 64 µg/mL. The “MIC Escherichia coli (ATCC 25922)” value (Escherichia coli [2]) was greater than 64 µg/mL.
